Measured values published in US12065427B2, “Heterocyclic compounds capable of activating STING” (BOEHRINGER INGELHEIM INTERNATIONAL GMBH, priority 2021, dated 2024).

What was measured:
[1] = test system: Human STING (hSTING, residues 155-341); test: Interaction with hSTING as determined by Differential Scanning Fluorimetry (DSF); assay type: binding; details: 100 μM test compounds, 5 μM target protein
Experimental: Interaction with hSTING as Determined by Differential Scanning Fluorimetry (DSF)
In DSF, the temperature at which a protein unfolds, also called the melting temperature Tm, is measured by changes in fluorescence of a dye that binds to the hydrophobic parts of the protein. Tm shifts upon binding of a small molecule are correlated with the binding affinity of this small molecule. As target protein, Human STING (hSTING, residues 155-341, MW: 21578.4 Da; protein stock solution: c=1302 μM stock solution in 20 mM Tris, 100 mM NaCl, 2 mM TCEP pH 8.8) was used, as assay buffer 20 mM Tris, 150 mM NaCI pH7.5 was added where and as necessary.
Final concentrations of components in assay: 100 μM test compounds, 5 μM target protein, “5×” SYPR Orange (from stock solution SYPRO orange solution in DMSO (invitrogen cat.-no. S6650-500 ul), concentration “5000×”)
1) Dilutions of compound stock solutions (10 mM in DMSO) were prepared in assay buffer (20 mM Tris, 150 mM NaCl; pH7.5)
2) 5 μl fluorescent dye stock solution (5000×SYPRO Orange in DMSO) was mixed with 19 μl target protein (1302 μM) and 976 μl assay buffer.
3) 2 μl of this protein-dye-mixture (25×SYPRO Orange and 25 μM Protein) was added to 8 μl diluted compound solution as prepared in step 1. Final volume was 10 μl.
4) With every 20 compounds, two negative controls were measured.
5) The plates were prepared for duplicate measurement and centrifuged for 2 min at 1000 g.
6) For the measurement, a CFX384 Real-Time System (Bio-Rad) was used. The run consisted of 140 cycles with 0.5° C./cycle (temperature ramp 15 s/cycle, 25° C. to 95° C.).
Data analysis: The melting curves were processed in Bio-Rad CFX Manager. Peak type was set to “negative”. Two replicates of TM (melting temperature) measurements were averaged and the standard deviation was calculated.

STING HAQ-variant = biological target: T1, STING HAQ-variant (Homo sapiens, UniProt Q86WV6, G230A/H232R/R293Q/R71H); test: IRF-inducible SEAP reporter assay in THP1-Blue ISG cells, STING HAQ-variant; assay type: cell-based; details: STING HAQ-variant (parental or re-introduced), 24 hours incubation
T1 construct: parental THP1-Blue™ ISG cell lines (which express endogenously HAQ); host or cells: THP1-Blue ISG (parental, endogenous HAQ) or STING-KO clone re-transduced with HAQ (MSCV-ires-GFP-Blasti)
T1 sequence (Q86WV6 whole entry R71H/G230A/H232R/R293Q): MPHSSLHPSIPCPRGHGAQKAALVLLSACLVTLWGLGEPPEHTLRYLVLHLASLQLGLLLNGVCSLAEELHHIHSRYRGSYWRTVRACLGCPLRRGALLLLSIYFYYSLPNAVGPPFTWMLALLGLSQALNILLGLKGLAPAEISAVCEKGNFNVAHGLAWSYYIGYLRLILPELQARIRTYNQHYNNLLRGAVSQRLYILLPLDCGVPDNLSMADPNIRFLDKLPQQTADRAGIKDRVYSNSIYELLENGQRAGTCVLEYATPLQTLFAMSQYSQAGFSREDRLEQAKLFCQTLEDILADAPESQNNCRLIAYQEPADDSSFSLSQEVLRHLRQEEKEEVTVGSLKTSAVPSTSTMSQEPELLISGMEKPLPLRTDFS
From the text: (§1) In Vitro Cytokine Induction Measured Via Activation of an Interferon Regulatory Factor Inducible Reporter Gene
(§2) Activation of the STING protein expressed in cell lines results in an increase of interferon production. By the stable integration of an interferon regulatory factor (IRF)-inducible SEAP gene (secreted embryonic alkaline phosphatase) reporter construct the functional interferon signaling pathway can be monitored. Using Invivogen's THP1-Blue™ ISG colorimetric enzyme assay and a suitable optical density (OD) reader the activity of SEAP can be detected and quantified. This technique could be used to characterize pharmacological modification of the STING pathway.
(§3) Several single nucleotide polymorphisms have been identified in the human STING gene. To determine the activity of the above described compounds, THP1-Blue™ ISG reporter cell lines expressing the different human STING variants have been generated. To do so, the endogenous human STING was first deleted using the CRISPR/CAS9 system: THP1-Blue ISG cells were electroporated with ALL-IN-ONE CRISPR plasmids targeting the STING gene (purchased from Sigma encoding the gRNA and GFP as a reporter gene for successful transduction). GFP positive cells then were sorted 24 h post transfection and expanded. Cells were then dispersed in semisolid methocel medium to allow single cell clone isolations. Clones were then screened for cGAMP responsiveness using the Quanti-Blue™ reporter assay. Non-responsive clones were subsequently analysed for STING loss by western blotting and sequencing of the STING locus.
(§4) For the overexpression of the human STING variants, a confirmed THP1-Blue™ ISG hSTING KO clone was transduced with individual retroviral plasmids (MSCV-ires-GFP-Blasti) encoding the allelic variants of hSTING (WT (H232R), HAQ, R232H, AQ and R293Q). Transduced cells were sorted for different levels of GFP fluorescence and STING allele expression was analysed by western blot.
(§5) Measurements of SEAP activity were performed in THP1-Blue™ ISG cells stably expressing the different human STING isoforms and the IRF-inducible SEAP reporter construct. Cells were cultivated in RPMI1640 medium with 10% fetal calf serum, 50 μg/ml Penicillin-Streptomycin, 100 μg/ml Zeocin, and 100 μg/ml Normocin in a 37°, 95% humidity and 5% CO2 incubator.
(§6) In preparation for the assay, the cells were distributed into the assay plates with a density of 10000 cells/15 μL per well. Compounds were prepared by an 8 point serial dilution in 50% aqueous DMSO and a final dilution step into medium to ensure a final DMSO concentration of 0.5% in the assay. 5 μL of diluted compounds were added to the plates, followed by a 24 hours incubation at 37° C.
(§7) At the day of the assay, 75 μl per well of Quanti-Blue™ reagent was added to all wells of the plate and the plate was incubated another 30 minutes at 37° C. The OD at 620 nm was measured on the EnVision reader (PerkinElmer).
(§8) EC50 values and Hill slopes were derived from 8-point four parametric non-linear curve fittings with the Megalab software (Boehringer Ingelheim) using the OD at 620 nm.
(§9) Data of EC50 values can be found in tables 2a-2e.
Data of EC50 values on STING HAQ-variant can be found in table 2a. Shown data below were either derived from the parental THP1-Blue™ ISG cell lines (which express endogenously HAQ) or from genetically engineered THP1-Blue™ ISG cell lines in which first STING has been knocked-out and the HAQ specific STING isoform has been re-introduced as described above.

STING H232R-variant = biological target: T2, STING H232R-variant (Homo sapiens, UniProt Q86WV6, H232R); test: IRF-inducible SEAP reporter assay in THP1-Blue ISG cells, STING H232R-variant; assay type: cell-based; details: STING H232R-variant (WT), 24 hours incubation
T2 construct: expressed in transfected cells; host or cells: THP1-Blue ISG hSTING KO clone, retroviral MSCV-ires-GFP-Blasti
T2 sequence (Q86WV6 whole entry H232R): as the sequence (Q86WV6 whole entry R71H/G230A/H232R/R293Q) above, with H71R, A230G, Q293R counted along it
From the text: as §1, §2, §3, §4, §5, §6, §7, §8, §9
Data of EC50 values on STING H232R-variant can be found in table 2b: […]

STING R232H-variant = biological target: T3, STING R232H-variant (Homo sapiens, UniProt Q86WV6); test: IRF-inducible SEAP reporter assay in THP1-Blue ISG cells, STING R232H-variant; assay type: cell-based; details: 24 hours incubation
T3 construct: expressed in transfected cells; host or cells: THP1-Blue ISG hSTING KO clone, retroviral MSCV-ires-GFP-Blasti
T3 sequence (Q86WV6 whole entry, stated change not applied): as the sequence (Q86WV6 whole entry R71H/G230A/H232R/R293Q) above, with H71R, A230G, R232H, Q293R counted along it
From the text: as §1, §2, §3, §4, §5, §6, §7, §8, §9
Data of EC50 values on STING R232H-variant can be found in table 2c: […]

STING R293Q-variant = biological target: T4, STING R293Q-variant (Homo sapiens, UniProt Q86WV6, H232R/R293Q); test: IRF-inducible SEAP reporter assay in THP1-Blue ISG cells, STING R293Q-variant; assay type: cell-based; details: 24 hours incubation
T4 construct: expressed in transfected cells; host or cells: THP1-Blue ISG hSTING KO clone, retroviral MSCV-ires-GFP-Blasti
T4 sequence (Q86WV6 whole entry H232R/R293Q): as the sequence (Q86WV6 whole entry R71H/G230A/H232R/R293Q) above, with H71R, A230G counted along it
From the text: as §1, §2, §3, §4, §5, §6, §7, §8, §9
Data of EC50 values on STING R293Q-variant can be found in table 2d: […]

STING AQ-variant = biological target: T5, STING AQ-variant (Homo sapiens, UniProt Q86WV6, G230A/H232R/R293Q); test: IRF-inducible SEAP reporter assay in THP1-Blue ISG cells, STING AQ-variant; assay type: cell-based; details: 24 hours incubation
T5 construct: expressed in transfected cells; host or cells: THP1-Blue ISG hSTING KO clone, retroviral MSCV-ires-GFP-Blasti
T5 sequence (Q86WV6 whole entry G230A/H232R/R293Q): as the sequence (Q86WV6 whole entry R71H/G230A/H232R/R293Q) above, with H71R counted along it
From the text: as §1, §2, §3, §4, §5, §6, §7, §8, §9
Data of EC50 values on STING AQ-variant can be found in table 2e: […]

in vitro = details: human, Caco-2, pH 7.4

EC50 (STING HAQ-variant) [nM]	EC50 (STING H232R-variant) [nM]	EC50 (STING R232H-variant) [nM]	EC50 (STING R293Q-variant) [nM]	EC50 (STING AQ-variant) [nM]	efflux ratio at 10 μM (in vitro)	Papp A→B at 10 μM (in vitro) [×10⁻⁶ cm/s]	SMILES	thermal shift (ΔTm) [1] [K]
700	200	200	400	200	0.4	–	COC(=O)C1C2CN(c3ccc(-n4nc(-c5cccc6nn(C)cc56)c5cccc(C)c54)cn3)CC21 (stereo not shown) [Example #1, Methyl 3-(5-(2′,7-dimethyl-1H,2′H-[3,4′-biindazol]-1-yl)pyridin-2-yl)-3-azabicyclo[3.1.0]hexane-6-carboxylate]	21
600	90	50	400	200	0.6	20	Cc1cccc2c(-c3cccc4nn(C)cc34)nn(-c3ccc(N4CCC5(CCC(=O)N5)CC4)nc3)c12 [Example #2, 8-(5-{2′,7-dimethyl-1H,2′H-[3,4′-biindazol]-1-yl}pyri-din-2-yl)-1,8-dia-zaspiro[4.5]decan-2-one]	22
2700	2000	2300	2200	–	–	–	Cc1cccc2c(-c3cccc4nn(C)cc34)nn(-c3ccc(NCc4cncnc4)nc3)c12 [compound 24, 5-{2′,7-dimethyl-1H,2′H-[3,4′-biindazol]-1-yl}-N-[(pyrimidin-5-yl)methyl]pyridin-2-amine]	–
300	50	50	300	200	–	–	Cc1cccc2c(-c3cccc4nn(C)cc34)nn(-c3ccc(N4CCN(C=O)CC4)nc3)c12 [compound 51, 4-(5-(2′,7-dimethyl-1H,2′H-[3,4′-biindazol]-1-yl)pyridin-2-yl)piperazine-1-carbaldehyde]	15
700	200	600	500	–	–	–	Cn1cc2c(-c3nn(-c4ccc(N5CC6C(C5)C6C(=O)O)nc4)c4c(Br)cccc34)cccc2n1 (stereo not shown) [compound 64, 3-(5-{7-bromo-2′-methyl-1H,2′H-[3,4′-biindazol]-1-yl}pyridin-2-yl)-3-azabicy-clo[3.1.0]hexane-6-car-boxylic acid]	–

The remaining lines, values behind:

SMILES	EC50 (STING HAQ-variant) [nM]	EC50 (STING H232R-variant) [nM]	EC50 (STING R232H-variant) [nM]	EC50 (STING R293Q-variant) [nM]	EC50 (STING AQ-variant) [nM]	efflux ratio at 10 μM (in vitro)	Papp A→B at 10 μM (in vitro) [×10⁻⁶ cm/s]	thermal shift (ΔTm) [1] [K]
Cc1cccc2c(-c3cccc4nn(C)cc34)nn(-c3ccc(N4CCN(C(N)=O)CC4)nc3)c12 [Example #7, 4-(5-{2′,7-dimethyl-1H,2′H-[3,4′-biindazol]-1-yl}pyri-din-2-yl)piperazine-1-car-boxamide]	800	200	200	700	600	0.6	28	22
Cc1cccc2c(-c3cccc4nn(C)cc34)nn(-c3ccc(N4CCC(S(N)(=O)=O)CC4)nc3)c12 [Example #22, 1-(5-{2′,7-dimethyl-1H,2′H-[3,4'′biindazol]-1-yl}pyri-din-2-yl)piperidine-4-sul-fonamide]	700	100	200	700	700	1.6	10	23
CCc1cccc2c(-c3cccc4nn(C)cc34)nn(-c3ccc(N4CCC(C(=O)O)CC4)nc3)c12 [Example #66, 1-(5-{7-ethyl-2′-methyl-1H,2′H-[3,4′-biindazol]-1-yl}pyridin-2-yl)piperidine-4-carboxylic acid]	1600	300	200	700	800	–	–	16
Cc1cccc2c(-c3cccc4nn(C)cc34)nn(-c3ccc(N4CCn5cncc5C4)nc3)c12 [compound 12, 1-(6-{5H,6H,7H,8H-imidazo[1,5-a]pyrazin-7-yl}pyridin-3-yl)-2′,7-dimethyl-1H,2'H-3,4′-biindazole]	1900	400	600	2100	–	0.4	11	21
Cc1cccc2c(-c3cccc4nn(C)cc34)nn(-c3ccc(N4CC5(CN(C=O)C5)C4)nc3)c12 [compound 54, 6-(5-{2′,7-dimethyl-1H,2′H-[3,4′-biinda-zol]-1-yl}pyridin-2-yl)-2,6-diaza-spiro[3.3]heptane-2-carbaldehyde]	2100	300	–	–	5300	0.8	38	21
CCc1cccc2c(-c3cccc4nn(C)cc34)nn(-c3ccc(N4CC5C(C4)C5C(=O)O)nc3)c12 (stereo not shown) [compound 65, 3-(5-{7-ethyl-2′-methyl-1H,2′H-[3,4′-biindazol]-1-yl}pyridin-2-yl)-3-azabicy-clo[3.1.0]hexane-6-car-boxylic acid]	200	100	100	100	100	–	–	21
Cc1cccc2c(-c3cccc4nn(C)cc34)nn(-c3ccc(N4CC5C(C4)C5C(N)=O)nc3)c12 (stereo not shown) [compound 72, 3-(5-{2′,7-dimethyl-1H,2′H-[3,4′-biindazol]-1-yl}pyridin-2-yl)-3-azabicyclo[3.1.0]hexane-6-carboxamide]	1800	600	300	700	800	–	–	18
